# pKd: −log10 of the molar value. Where a SMILES comes first, the peptide text is derived from it.
# Target: T1, β-catenin (Homo sapiens, UniProt P35222)
# T1 sequence (P35222 1-781): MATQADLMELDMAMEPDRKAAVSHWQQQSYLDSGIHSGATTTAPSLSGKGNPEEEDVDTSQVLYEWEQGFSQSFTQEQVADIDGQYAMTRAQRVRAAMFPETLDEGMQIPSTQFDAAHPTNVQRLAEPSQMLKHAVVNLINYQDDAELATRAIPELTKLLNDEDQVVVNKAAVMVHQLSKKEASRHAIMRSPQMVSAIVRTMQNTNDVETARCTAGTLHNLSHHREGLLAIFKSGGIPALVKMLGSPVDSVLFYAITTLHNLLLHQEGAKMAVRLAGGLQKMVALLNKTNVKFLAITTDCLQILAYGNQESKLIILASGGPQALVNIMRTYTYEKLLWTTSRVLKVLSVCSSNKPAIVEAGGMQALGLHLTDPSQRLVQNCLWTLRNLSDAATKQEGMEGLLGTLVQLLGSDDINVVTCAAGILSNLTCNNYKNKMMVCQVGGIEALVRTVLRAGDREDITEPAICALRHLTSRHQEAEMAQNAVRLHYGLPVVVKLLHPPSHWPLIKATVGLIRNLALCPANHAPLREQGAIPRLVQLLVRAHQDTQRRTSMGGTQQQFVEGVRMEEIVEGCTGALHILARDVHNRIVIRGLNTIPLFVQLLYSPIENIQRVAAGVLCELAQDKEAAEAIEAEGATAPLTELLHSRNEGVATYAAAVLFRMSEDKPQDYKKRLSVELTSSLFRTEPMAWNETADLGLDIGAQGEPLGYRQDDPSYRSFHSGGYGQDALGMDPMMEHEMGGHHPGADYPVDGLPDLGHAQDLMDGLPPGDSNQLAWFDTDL
# Experiment: KD50 measurement using competitive fluorescence polarization (FP) with labelled TCF4
# Type: binding
# Settings: fluorescence polarization, β-catenin; for pKd: read-out: β-Cat FP KD
# Description: Fluorescence polarization (FP) is another method used to analyze protein-ligand interactions. This methodology measures the change in fluorescence light emitted by a labelled compound free vs. conjugated to another compound in solution. Upon binding of the fluorescent molecule to a complex, polarization increases because of limited rotation of the fluorescent tracer. Competitive FP is often utilized in drug screens as it is formatted for high throughput screens in a plate format. This immunoassay is performed by introducing a non-conjugated drug to compete for binding to the labelled competitor-ligand complex, leading to a reduction in polarization. TCF4 protein is utilized for the competitive assay as (1) this protein influences the full activation of the Wnt pathway and (2) shares homology with the β-catenin inhibitors. Exemplary methodology is described in Example 13. Data were analyzed and plotted in Microsoft Excel (Microsoft, Redmond, WA).
# 5 nM of labelled TCF4 protein was added to solution of 100 nM of β-catenin and incubated at room temperature in 96-well plates (Greiner 96 Flat transparent plates, Millipore Sigma, Carlsbad CA). Varying concentrations of β-catenin inhibitor candidate (SEQ ID NO: 404) were then added in a series of serial dilutions from 10 nM to 30 uM of inhibitor in different wells of the plate. The fluorescence polarization was read by Infinite M1000 (Tecan, Baldwin Park CA) at excitation wavelength of 470 nm and measured at emission wavelength of 520 nm. […] The experiments were performed three times and data were analyzed and plotted in Microsoft Excel (Microsoft, Redmond, WA).
Structure (SMILES),pKd,β-Cat FP Hill slope
"CC[C@H](C)[C@@H]1NC(=O)[C@@H](NC(=O)[C@H](CCC(N)=O)NC(=O)[C@H](C)N(C)C(=O)[C@@H](N)Cc2c[nH]c3ccccc23)CCCNC(=O)CC[C@@H](C(=O)N[C@@H](Cc2c[nH]cn2)C(=O)N[C@H](C(=O)N[C@@H](CCC(N)=O)C(=O)N[C@@H](CCCNC(=N)N)C(=O)N[C@H](C(=O)N[C@@H](Cc2c[nH]c3ccccc23)C(=O)NCC(N)=O)C(C)C)C2CCCCC2)NC(=O)[C@H](CC(=O)O)NC(=O)[C@H](CC(C)C)NC1=O [compound 423] (HELM PEPTIDE1{W.[meA].Q.[Orn].I.L.D.E.H.[O=C([C@@H](N[*:1])C1CCCCC1)[*:2]].Q.R.V.W.G.[am]}$PEPTIDE1,PEPTIDE1,4:R3-8:R3$$$V2.0)",6.00 to 6.40,0.7
"CC[C@H](C)[C@@H]1NC(=O)[C@H](CC(C)C)NC(=O)[C@H](Cc2ccccc2)NC(=O)[C@H](Cc2c[nH]c3ccccc23)NC(=O)[C@@H](N)CCCCNC(=O)CC[C@@H](C(=O)N[C@@H](Cc2c[nH]c3ccccc23)C(=O)NCC(=O)O)NC(=O)[C@H](CO)NC1=O [compound 228] (HELM PEPTIDE1{K.W.F.L.I.S.E.W.G}$PEPTIDE1,PEPTIDE1,1:R3-7:R3$$$V2.0)",< 4.52,0.2
"CC[C@H](C)[C@@H]1NC(=O)[C@@H](NC(=O)C(C)(C)NC(=O)[C@H](C)N(C)C(=O)[C@H](Cc2c[nH]c3ccccc23)NC(C)=O)CCCCNC(=O)CC[C@@H](C(=O)N[C@@H](Cc2c[nH]cn2)C(=O)N[C@H](C(=O)N[C@@H](CCC(N)=O)C(=O)N[C@@H](CCCNC(=N)N)C(=O)N[C@H](C(=O)N[C@@H](Cc2c[nH]c3ccccc23)C(=O)NCC(N)=O)C(C)C)C2CCCCC2)NC(=O)[C@H](CC(=O)O)NC(=O)[C@H](CC(C)C)NC1=O [compound 418] (HELM PEPTIDE1{[ac].W.[meA].[Aib].K.I.L.D.E.H.[O=C([C@@H](N[*:1])C1CCCCC1)[*:2]].Q.R.V.W.G.[am]}$PEPTIDE1,PEPTIDE1,5:R3-9:R3$$$V2.0)",< 4.52,1.03
CC[C@H](C)[C@H](NC(=O)[C@H](CC(C)C)NC(=O)[C@H](Cc1ccccc1)NC(=O)[C@H](Cc1c[nH]c2ccccc12)NC(=O)[C@@H](N)CCSC)C(=O)N[C@@H](CO)C(=O)N[C@@H](Cc1ccccc1)C(=O)N[C@@H](C)C(=O)NCC(=O)O [compound 8] (H-MWFLISFAG-OH),5.00 to 6.00,1.7
"CC[C@H](C)[C@@H]1NC(=O)[C@H](CC(C)C)NC(=O)[C@H](Cc2ccccc2)NC(=O)[C@H](Cc2c[nH]c3ccccc23)NC(=O)[C@@H](N)CCCCNC(=O)CCCCCNC(=O)C[C@@H](C(=O)O)NC(=O)[C@H](Cc2c[nH]c3ccccc23)NC(=O)[C@H](C)NC(=O)[C@H](CS)NC1=O [compound 249] (HELM PEPTIDE1{K.W.F.L.I.C.A.W.[O=C(O)[C@H](CC(=O)[*:2])N[*:1]].[O=C(CCCCCN[*:1])[*:2]]}$PEPTIDE1,PEPTIDE1,1:R3-10:R2$$$V2.0)",6.00 to 6.40,0.92
"CCC[C@H]1C(=O)N[C@@H](Cc2c[nH]c3ccccc23)C(=O)N[C@@H](CC(C)C)C(=O)N[C@@H](CO)C(=O)N[C@@H](CCCNC(=N)N)C(=O)N[C@@H](CCC(N)=O)C(=O)N[C@@H](Cc2c[nH]c3ccccc23)C(=O)N[C@@H]([C@@H](C)CC)C(=O)N[C@@H](C(C)C)C(=O)N[C@H](C(N)=O)CCCCNC(=O)CCCC(=O)N[C@@H](CCSC)C(=O)N[C@@H](Cc2c[nH]c3ccccc23)C(=O)N1C [compound 5] (HELM PEPTIDE1{M.W.[CCC[C@@H](C(=O)[*:2])N(C)[*:1]].W.L.S.R.Q.W.I.V.K.[am]}|CHEM1{[O=C(CCCC(=O)[*:2])[*:1]]}$PEPTIDE1,CHEM1,1:R1-1:R1|PEPTIDE1,CHEM1,12:R3-1:R2$$$V2.0)",5.00 to 6.00,0.5
"CC[C@H](C)[C@@H]1NC(=O)[C@H](CC(C)C)NC(=O)[C@H](Cc2ccccc2)NC(=O)[C@@H](N)CCCCNC(=O)C[C@@H](C(=O)O)NC(=O)[C@H](Cc2c[nH]c3ccccc23)NC(=O)[C@H](Cc2ccccc2)NC(=O)[C@H](C)NC1=O [compound 253] (HELM PEPTIDE1{K.F.L.I.A.F.W.D}$PEPTIDE1,PEPTIDE1,1:R3-8:R3$$$V2.0)",< 4.52,–

# Next, values leading:
pKd,β-Cat FP Hill slope,Structure (SMILES)
> 6.40,–,"CCCCCCCCCCCC(=O)N(C)[C@@H](C)C(=O)N[C@@H](CCC(N)=O)C(=O)N[C@H]1CCCCNC(=O)CC[C@@H](C(=O)N[C@@H](Cc2c[nH]cn2)C(=O)N[C@H](C(=O)N[C@@H](CCC(N)=O)C(=O)N[C@@H](CCCNC(=N)N)C(=O)N[C@H](C(=O)N[C@@H](Cc2c[nH]c3ccccc23)C(=O)NCC(N)=O)C(C)C)C2CCCCC2)NC(=O)[C@H](CC(N)=O)NC(=O)[C@H](CC(C)C)NC(=O)[C@H]([C@@H](C)CC)NC1=O [compound 434] (HELM PEPTIDE1{[CCCCCCCCCCCC(=O)[*:2]].[meA].Q.K.I.L.N.E.H.[O=C([C@@H](N[*:1])C1CCCCC1)[*:2]].Q.R.V.W.G.[am]}$PEPTIDE1,PEPTIDE1,4:R3-8:R3$$$V2.0)"
> 6.40,–,"CCCCCCCCC(=O)N[C@@H](Cc1c[nH]c2ccccc12)C(=O)N(C)[C@@H](C)C(=O)N[C@@H](CCC(N)=O)C(=O)N[C@H]1CCC(=O)NCCCC[C@@H](C(=O)N[C@@H](Cc2c[nH]cn2)C(=O)N[C@H](C(=O)N[C@@H](CCC(N)=O)C(=O)N[C@@H](CCCNC(=N)N)C(=O)N[C@H](C(=O)N[C@@H](Cc2c[nH]c3ccccc23)C(=O)NCC(N)=O)C(C)C)C2CCCCC2)NC(=O)[C@H](CC(=O)O)NC(=O)[C@H](CC(C)C)NC(=O)[C@H]([C@@H](C)CC)NC1=O [compound 427] (HELM PEPTIDE1{[CCCCCCCCC(=O)[*:2]].W.[meA].Q.E.I.L.D.K.H.[O=C([C@@H](N[*:1])C1CCCCC1)[*:2]].Q.R.V.W.G.[am]}$PEPTIDE1,PEPTIDE1,5:R3-9:R3$$$V2.0)"
> 6.40,0.93,"CC[C@H](C)[C@@H]1NC(=O)[C@@H](NC(=O)C(C)(C)NC(=O)[C@H](C)N(C)C(=O)[C@@H](N)Cc2c[nH]c3ccccc23)CCCCNC(=O)CC[C@@H](C(=O)N[C@@H](Cc2c[nH]cn2)C(=O)N[C@H](C(=O)N[C@@H](CCC(N)=O)C(=O)N[C@@H](CCCNC(=N)N)C(=O)N[C@H](C(=O)N[C@@H](Cc2c[nH]c3ccccc23)C(=O)NCC(N)=O)C(C)C)C2CCCCC2)NC(=O)[C@H](CC(=O)O)NC(=O)[C@H](CC(C)C)NC1=O [compound 417] (HELM PEPTIDE1{W.[meA].[Aib].K.I.L.D.E.H.[O=C([C@@H](N[*:1])C1CCCCC1)[*:2]].Q.R.V.W.G.[am]}$PEPTIDE1,PEPTIDE1,4:R3-8:R3$$$V2.0)"
> 6.40,–,"CCCCCCCCC(=O)N[C@@H](Cc1c[nH]c2ccccc12)C(=O)N(C)[C@@H](C)C(=O)N[C@@H](CCC(N)=O)C(=O)N[C@@H](CO)C(=O)N[C@H](C(=O)N[C@@H](CC(C)C)C(=O)N[C@@H](CC(=O)O)C(=O)N[C@H]1CCC(=O)NCCCC[C@@H](C(=O)N[C@H](C(=O)N[C@@H](Cc2c[nH]c3ccccc23)C(=O)NCC(N)=O)C(C)C)NC(=O)[C@H](CCC(N)=O)NC(=O)[C@H](C(C)C)NC(=O)[C@H](Cc2c[nH]cn2)NC1=O)[C@@H](C)CC [compound 438] (HELM PEPTIDE1{[CCCCCCCCC(=O)[*:2]].W.[meA].Q.S.I.L.D.E.H.V.Q.K.V.W.G.[am]}$PEPTIDE1,PEPTIDE1,9:R3-13:R3$$$V2.0)"
> 6.40,0.72,"CC[C@H](C)[C@H](NC(=O)[C@H](CO)NC(=O)[C@H](CCC(N)=O)NC(=O)[C@H](C)N(C)C(=O)[C@H](Cc1c[nH]c2ccccc12)NC(C)=O)C(=O)N[C@@H](CC(C)C)C(=O)N[C@@H](CC(=O)O)C(=O)N[C@H]1CCC(=O)NCCCC[C@@H](C(=O)N[C@H](C(=O)N[C@@H](Cc2c[nH]c3ccccc23)C(N)=O)C(C)C)NC(=O)[C@H](CCC(N)=O)NC(=O)[C@H](C2CCCCC2)NC(=O)[C@H](Cc2c[nH]cn2)NC1=O [compound 466] (HELM PEPTIDE1{[ac].W.[meA].Q.S.I.L.D.E.H.[O=C([C@@H](N[*:1])C1CCCCC1)[*:2]].Q.K.V.W.[am]}$PEPTIDE1,PEPTIDE1,9:R3-13:R3$$$V2.0)"

# Reference: US12441768B2, “Compositions and methods for treating endometriosis” (EndoMet Biosciences, Inc., priority 2018, dated 2025)
